Consider 17 compounds from patent US20230340011A1 (Asteroid Therapeutics, priority 2022, published 2023).

In general, IC50 refers to the concentration that gives 50% inhibition. A lower IC50 goes with greater potency in that assay.

One assay has as its target SREBP-2 (Homo sapiens (Human), UniProt Q12772). The assay can be described thus: In vitro assay SREBP-2: PathHunter U2OS SREBP-2 Nuclear Translocation Cell Line, U18666A-stimulated. Type of assay: cell-based. The conditions noted are these: PathHunter U2OS SREBP-2 nuclear translocation cells, U18666A 10 μM, overnight (16 hours).
The next assay has as its target LXRβ (Homo sapiens (Human), UniProt P55055). The assay can be described thus: In vitro assay LXRβ: PathHunter NHR CHO cells, LXRβ / Steroid Receptor Co-activator Peptide enzyme fragment complementation. Particulars: PathHunter NHR CHO cells, full-length human LXRβ and SRCP, chemiluminescent signal; read-out: LXRβ PPI. Type of assay: cell-based. Put shortly:
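Enzyme fragment complementation read-out: CHO cells stably expressing ProLink-tagged full-length human LXRβ plus nuclear enzyme acceptor–SRCP fusion, seeded and held overnight at 37° C. Medium with charcoal-dextran filtered serum; final vehicle 1%. Chemiluminescence measured after signal generation.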

Chain of LXRβ (P55055 whole entry, the tested form may be a part): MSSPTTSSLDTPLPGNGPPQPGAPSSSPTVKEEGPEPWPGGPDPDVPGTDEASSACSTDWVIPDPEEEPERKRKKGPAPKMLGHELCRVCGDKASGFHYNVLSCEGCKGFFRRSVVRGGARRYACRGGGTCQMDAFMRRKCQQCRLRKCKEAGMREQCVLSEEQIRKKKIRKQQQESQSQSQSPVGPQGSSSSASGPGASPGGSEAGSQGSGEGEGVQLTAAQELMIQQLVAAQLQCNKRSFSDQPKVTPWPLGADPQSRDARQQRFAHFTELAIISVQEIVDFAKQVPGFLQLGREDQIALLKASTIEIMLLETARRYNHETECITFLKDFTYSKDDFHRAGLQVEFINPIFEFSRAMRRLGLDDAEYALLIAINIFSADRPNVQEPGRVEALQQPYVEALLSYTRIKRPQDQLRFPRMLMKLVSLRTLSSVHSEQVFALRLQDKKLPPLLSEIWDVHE

Take `Cc1cc(N2CCN(C(=O)CC[C@@H](C)[C@H]3CC[C@H]4[C@@H]5CC=C6C[C@@H](O)CC[C@]6(C)[C@H]5CC[C@]34C)CC2)sn1` [Example 497, (R)-4-((3S,8S,9S,10R,13R,14S,17R)-3-hydroxy-10,13-dimethyl-2,3,4,7,8,9,10,11,12,13,14,15,16,17-tetradecahydro-1H-cyclopenta[a]phenanthren-17-yl)-1-(4-(3-methylisothiazol-5-yl)piperazin-1-yl)pentan-1-one]: at SREBP-2, the IC50 was under 250 nM. For the same compound, on LXRβ, the EC50 was over 10000 nM.
For `Cc1cncnc1N1CCN(C(=O)CC[C@@H](C)[C@H]2CC[C@H]3[C@@H]4CC=C5C[C@@H](O)CC[C@]5(C)[C@H]4CC[C@]23C)CC1` [Example 508, (R)-4-((3S,8S,9S,10R,13R,14S,17R)-3-hydroxy-10,13-dimethyl-2,3,4,7,8,9,10,11,12,13,14,15,16,17-tetradecahydro-1H-cyclopenta[a]phenanthren-17-yl)-1-(4-(5-methylpyrimidin-4-yl)piperazin-1-yl)pentan-1-one], on SREBP-2, the half-inhibitory concentration (IC50) is under 250 nM. At LXRβ, the EC50 is over 10000 nM.
In the same order, the values of `C[C@H](CCC(=O)N1CCN(C(=O)C2CCCC2)CC1)[C@H]1CC[C@H]2[C@@H]3CC=C4C[C@@H](O)CC[C@]4(C)[C@H]3CC[C@]12C` [Example 515, (R)-1-(4-(cyclopentanecarbonyl)piperazin-1-yl)-4-((3S,8S,9S,10R,13R,14S,17R)-3-hydroxy-10,13-dimethyl-2,3,4,7,8,9,10,11,12,13,14,15,16,17-tetradecahydro-1H-cyclopenta[a]phenanthren-17-yl)pentan-1-one] are under 250 nM and over 10000 nM.
In turn, `C[C@H](CCC(=O)N1CCN(c2ccn(C3CC3)c2)CC1)[C@H]1CC[C@H]2[C@@H]3CC=C4C[C@@H](O)CC[C@]4(C)[C@H]3CC[C@]12C` [Example 516, (R)-1-(4-(1-cyclopropyl-1H-pyrrol-3-yl)piperazin-1-yl)-4-((3S,8S,9S,10R,13R,14S,17R)-3-hydroxy-10,13-dimethyl-2,3,4,7,8,9,10,11,12,13,14,15,16,17-tetradecahydro-1H-cyclopenta[a]phenanthren-17-yl)pentan-1-one] had a 50% inhibitory concentration (IC50) against SREBP-2 of under 250 nM. At LXRβ, the EC50 is over 10000 nM.
On SREBP-2, `CCC1(OC)CCCN(C(=O)CC[C@@H](C)[C@H]2CC[C@H]3[C@@H]4CC=C5C[C@@H](O)CC[C@]5(C)[C@H]4CC[C@]23C)C1` (stereo partly drawn) [Example 519, (R)-1-((R)-3-ethyl-3-methoxypiperidin-1-yl)-4-((3S,8S,9S,10R,13R,14S,17R)-3-hydroxy-10,13-dimethyl-2,3,4,7,8,9,10,11,12,13,14,15,16,17-tetradecahydro-1H-cyclopenta[a]phenanthren-17-yl)pentan-1-one] registered a half-inhibitory concentration (IC50) of under 250 nM. The EC50 at LXRβ is 1000 to 10000 nM.
On the same counts, the results for `C[C@H](CCC(=O)N1CCN(C(=O)c2cn(C)cn2)CC1)[C@H]1CC[C@H]2[C@@H]3CC=C4C[C@@H](O)CC[C@]4(C)[C@H]3CC[C@]12C` [Example 538, (4R)-4-[(1R,3aS,3bS,7S,9aR,9bS,11aR)-7-hydroxy-9a,11a-dimethyl-1H,2H,3H,3aH,3bH,4H,6H,7H,8H,9H,9aH,9bH,10H,11H,11aH-cyclopenta[a]phenanthren-1-yl]-1-[4-(1-methyl-1H-imidazole-4-carbonyl)piperazin-1-yl]pentan-1-one] are under 250 nM and over 10000 nM.
Regarding `C[C@H](CCC(=O)N1CCN(C(=O)c2ccn(C)n2)CC1)[C@H]1CC[C@H]2[C@@H]3CC=C4C[C@@H](O)CC[C@]4(C)[C@H]3CC[C@]12C` [Example 539, (4R)-4-[(1R,3aS,3bS,7S,9aR,9bS,11aR)-7-hydroxy-9a,11a-dimethyl-1H,2H,3H,3aH,3bH,4H,6H,7H,8H,9H,9aH,9bH,10H,11H,11aH-cyclopenta[a]phenanthren-1-yl]-1-[4-(1-methyl-1H-pyrazole-3-carbonyl)piperazin-1-yl]pentan-1-one], the IC50 on SREBP-2 was under 250 nM. The EC50 at LXRβ is over 10000 nM.
On to `Cc1nnc(C(=O)N2CCN(C(=O)CC[C@@H](C)[C@H]3CC[C@H]4[C@@H]5CC=C6C[C@@H](O)CC[C@]6(C)[C@H]5CC[C@]34C)CC2)o1` [Example 540, (R)-4-((3S,8S,9S,10R,13R,14S,17R)-3-hydroxy-10,13-dimethyl-2,3,4,7,8,9,10,11,12,13,14,15,16,17-tetradecahydro-1H-cyclopenta[a]phenanthren-17-yl)-1-(4-(5-methyl-1,3,4-oxadiazole-2-carbonyl)piperazin-1-yl)pentan-1-one], for which, at SREBP-2, the IC50 was under 250 nM. Further, the EC50 on LXRβ is over 10000 nM.
On to `C[C@H](CCC(=O)N(C)CCc1cccnc1)[C@H]1CC[C@H]2[C@@H]3CC=C4C[C@@H](O)CC[C@]4(C)[C@H]3CC[C@]12C` [Example 543, (R)-4-((3S,8S,9S,10R,13R,14S,17R)-3-hydroxy-10,13-dimethyl-2,3,4,7,8,9,10,11,12,13,14,15,16,17-tetradecahydro-1H-cyclopenta[a]phenanthren-17-yl)-N-methyl-N-(2-(pyridin-3-yl)ethyl)pentanamide], for which the half-maximal inhibitory concentration (IC50) against SREBP-2 is under 250 nM. Further, the EC50 on LXRβ lay in the range of 250 to 1000 nM.
In the case of `C[C@H](CCC(=O)N(C)CCc1nccs1)[C@H]1CC[C@H]2[C@@H]3CC=C4C[C@@H](O)CC[C@]4(C)[C@H]3CC[C@]12C` [Example 545, (R)-4-((3S,8S,9S,10R,13R,14S,17R)-3-hydroxy-10,13-dimethyl-2,3,4,7,8,9,10,11,12,13,14,15,16,17-tetradecahydro-1H-cyclopenta[a]phenanthren-17-yl)-N-methyl-N-(2-(thiazol-2-yl)ethyl)pentanamide], the IC50 against SREBP-2 was 250 to 1000 nM. Moreover, the EC50 at LXRβ fell in the range of 250 to 1000 nM.
For the compound `C[C@H](CCC(=O)N1CCC(OCc2ccncc2)CC1)[C@H]1CC[C@H]2[C@@H]3CC=C4C[C@@H](O)CC[C@]4(C)[C@H]3CC[C@]12C` [Example 546, (R)-4-((3S,8S,9S,10R,13R,14S,17R)-3-hydroxy-10,13-dimethyl-2,3,4,7,8,9,10,11,12,13,14,15,16,17-tetradecahydro-1H-cyclopenta[a]phenanthren-17-yl)-1-(4-(pyridin-4-ylmethoxy)piperidin-1-yl)pentan-1-one], the half-inhibitory concentration (IC50) on SREBP-2 was under 250 nM. Further, the EC50 on LXRβ is over 10000 nM.
On SREBP-2, `C[C@H](CCC(=O)N(c1ccncc1)C1CC1)[C@H]1CC[C@H]2[C@@H]3CC=C4C[C@@H](O)CC[C@]4(C)[C@H]3CC[C@]12C` [Example 548, (4R)-4-[(1R,3aS,3bS,7S,9aR,9bS,11aR)-7-hydroxy-9a,11a-dimethyl-1H,2H,3H,3aH,3bH,4H,6H,7H,8H,9H,9aH,9bH,10H,11H,11aH-cyclopenta[a]phenanthren-1-yl]-N-cyclopropyl-N-(pyridin-4-yl)pentanamide] had an IC50 of under 250 nM. Also, the EC50 on LXRβ is 250 to 1000 nM.
On the same counts, the results for `COC(=O)N1CCN(C(=S)CC[C@@H](C)[C@H]2CC[C@H]3[C@@H]4CC=C5C[C@@H](O)CC[C@]5(C)[C@H]4CC[C@]23C)CC1` [Example 550, methyl4-[(4R)-4-[(1R,3aS,3bS,7S,9aR,9bS,11aR)-7-hydroxy-9a,11a-dimethyl-1H,2H,3H,3aH,3bH,4H,6H,7H,8H,9H,9aH,9bH,10H,11H,11aH-cyclopenta[a]phenanthren-1-yl]pentanethioyl]piperazine-1-carboxylate] are under 250 nM and over 10000 nM.
`CSC(=O)N1CCN(C(=O)CC[C@@H](C)[C@H]2CC[C@H]3[C@@H]4CC=C5C[C@@H](O)CC[C@]5(C)[C@H]4CC[C@]23C)CC1` [Example 551, (4R)-4-[(1R,3aS,3bS,7S,9aR,9bS,11aR)-7-hydroxy-9a,11a-dimethyl-1H,2H,3H,3aH,3bH,4H,6H,7H,8H,9H,9aH,9bH,10H,11H,11aH-cyclopenta[a]phenanthren-1-yl]-1-{4-[(methylsulfanyl)carbonyl]piperazin-1-yl}pentan-1-one] yielded a 50% inhibitory concentration (IC50) at SREBP-2 of under 250 nM. Moreover, on LXRβ, the EC50 was over 10000 nM.
`COC(=O)N1CCC12CN(C(=O)CC[C@@H](C)[C@H]1CC[C@H]3[C@@H]4CC=C5C[C@@H](O)CC[C@]5(C)[C@H]4CC[C@]13C)C2` [Example 552, methyl6-((R)-4-((3S,8S,9S,10R,13R,14S,17R)-3-hydroxy-10,13-dimethyl-2,3,4,7,8,9,10,11,12,13,14,15,16,17-tetradecahydro-1H-cyclopenta[a]phenanthren-17-yl)pentanoyl)-1,6-diazaspiro[3.3]heptane-1-carboxylate]: the IC50 against SREBP-2 lay in the range of 1000 to 10000 nM. Besides, the EC50 on LXRβ is over 10000 nM.
Compound `COC(=O)N1CCSC12CN(C(=O)CC[C@@H](C)[C@H]1CC[C@H]3[C@@H]4CC=C5C[C@@H](O)CC[C@]5(C)[C@H]4CC[C@]13C)C2` [Example 553, Methyl 2-((R)-4-((3S,8S,9S,10R,13R,14S,17R)-3-hydroxy-10,13-dimethyl-2,3,4,7,8,9,10,11,12,13,14,15,16,17-tetradecahydro-1H-cyclopenta[a]phenanthren-17-yl)pentanoyl)-5-thia-2,8-diazaspiro[3.4]octane-δ-carboxylate] showed an IC50 at SREBP-2 of 250 to 1000 nM. Also, the EC50 on LXRβ was over 10000 nM.
`COC(=O)N1CCC2(CCN(C(=O)CC[C@@H](C)[C@H]3CC[C@H]4[C@@H]5CC=C6C[C@@H](O)CC[C@]6(C)[C@H]5CC[C@]34C)C2)C1` (stereo partly drawn) [Example 554, Methyl 7-((R)-4-((3S,8S,9S,10R,13R,14S,17R)-3-hydroxy-10,13-dimethyl-2,3,4,7,8,9,10,11,12,13,14,15,16,17-tetradecahydro-1H-cyclopenta[a]phenanthren-17-yl)pentanoyl)-2,7-diazaspiro[4.4]nonane-2-carboxylate] showed an IC50 on SREBP-2 of under 250 nM. In addition, at LXRβ, the EC50 was over 10000 nM.
